Laboratory results as given in patent publication EP1534672B1, “RETINOL DERIVATIVES, THEIR USE IN THE TREATMENT OF CANCER AND FOR POTENTIATING THE EFFICACY OF OTHER CYTOTOXIC AGENTS” (priority 2002, dated 2004).
Like-named read-outs stand apart in the source and are kept apart here. Marks after values point to notes of the source that are not given here.

How the values were obtained:
[1] = system: Human Prostate Carcinoma Cell Line DU 145; assay: Drug cytotoxicity testing (viable cell count, trypan blue exclusion, cell growth inhibition); format: cell-based; conditions: alone or in formulation at molar ratio 1:6
Procedure: (§1) MDA-MB-231 cells were propagated in MEM culture medium with 2 mM L-glutamine, 10% heat-inactivated fetal bovine serum (FBS) and antibiotics. DU 145 cells were cultured in MEM culture medium containing 2 mM L-glutamine, 1 mM sodium pyruvate, 10% FBS and antibiotics. SKOV-3 cells were cultured in McCoy's 5A culture medium, supplemented with 1,5 mM L-glutamine, 10% FBS and antibiotics. A549 cells were cultured in Ham's F-12 culture medium with 1 mM L-glutamine, 10% FBS and antibiotics. All media and supplements were purchased from Sigma-Aldrich (St.Louis, MO, USA). Cell propagation of all lines was carried out in Falcon™ 25 cm^2 cultivation flasks (Becton Dickinson Labware).
(§2) Drug cytotoxicity testing was carried out with using Falcon™ 96-well cultivation plates for adherent cells (Becton Dickinson Labware). These plates were seeded by cells either at 12 × 10^3 MDA-MB-231 cells/well, or at 12 × 10^3 DU 145 cells/well, or at 14 × 10^3 SKOV-3 cells/well, or at 10 × 10^3 A549 cells/well in a volume of 200 µL/well.
(§3) The cell cultures in cultivation plates were allowed to adhere for 24 hour of incubation. On day 1 after cell seeding, 2 µL solutions of the drugs to be tested in medium with 5% FBS was added to the cultures. In the control cultures, 2 µL of medium with 5% FBS was added as solvent control. The cells were incubated for 2 consecutive days. At the end of the incubation period adherent cells were detached by trypsinization and the number of viable cells was counted using trypan blue exclusion test and a hemocytometer. All data were derived from an average of three determinations each in six replicates. The results were expressed as mean cell number ± SE and the differences between control and test series evaluated by means of Student's t-test. The drug cytotoxicity was evaluated based on the extent of cell growth inhibition. The cell growth inhibition of the tested drugs was calculated as follows: Cell growth inhibition,% = (Control-TestSeries)/(Control) × 100 [formula]

[2] = system: Human Breast Adenocarcinoma Cell Line MDA-MB-231; assay: as above; format: cell-based; conditions: for cell growth inhibition reached on increase of the concentration, in (B): dilution in normal saline (B)
Procedure: as §1, §2, §3
In the case of comparative evaluation of cytotoxicity of the inventive compounds themselves and the formulation related to consecutive dilutions of their initial solutions before adding to the cultures, 2 µL solutions of the drugs to be tested in medium with 5% FBS, in normal saline and in saline with 2,3 mM CaCl2 were added to the cultures. In control cultures, 2 µL of medium with 5% FBS, normal saline and saline with 2,3 mM CaCl2 were added as solvent controls (negative controls). […] Therefore an average of negative controls was calculated. […] Therefore an average of positive controls was calculated (for each antibiotic).

[3] = rat, in vivo, ip; for mortality: 100 mg/kg
Procedure: A single dose i.p. toxicity study in rats was carried out. […] The minimal lethal dose is thus above 100 mg/kg body weight for these compounds.

[4] = cytotoxic drug 10^-8 mol/L, working solutions in medium with 5% FBS
[5] = Homo sapiens, MDA-MB-231, compound alone 10^-7 mol/L, in A (saline with […] CaCl2), read-out: cell growth inhibition
[6] = Homo sapiens, MDA-MB-231, compound alone 10^-7 mol/L, in B (normal saline), read-out: cell growth inhibition
[7] = Homo sapiens, MDA-MB-231, compound alone 10^-7 mol/L, read-out: Cell growth inhibition in A compared to that in B was increased by
[8] = Homo sapiens, MDA-MB-231, compound alone 10^-8 mol/L, in A (saline with […] CaCl2), read-out: cell growth inhibition
[9] = Homo sapiens, MDA-MB-231, compound alone 10^-8 mol/L, in B (normal saline), read-out: cell growth inhibition
[10] = Homo sapiens, MDA-MB-231, compound alone 10^-8 mol/L, read-out: Cell growth inhibition in A compared to that in B was increased by
[11] = Homo sapiens, MDA-MB-231, compound alone 10^-9 mol/L, in A (saline with […] CaCl2), read-out: cell growth inhibition
[12] = Homo sapiens, MDA-MB-231, compound alone 10^-9 mol/L, in B (normal saline), read-out: cell growth inhibition
[13] = Homo sapiens, MDA-MB-231, compound alone 10^-9 mol/L, read-out: Cell growth inhibition in A compared to that in B was increased by
[14] = compound alone 10^-7 mol/L, in B (normal saline)
[15] = compound alone 10^-8 mol/L, in B (normal saline)
[16] = compound alone 10^-9 mol/L, in B (normal saline)
[17] = sodium salt, range 10^-9 to 10^-7 M
[18] = Homo sapiens, MDA-MB-231, 48 h, compound alone, final concentration 10^-7 mol/L, working solutions in MEM with 5% FBS, two days, read-out: cell growth inhibition
[19] = Homo sapiens, MDA-MB-231, 48 h, compound alone, final concentration 10^-8 mol/L, working solutions in MEM with 5% FBS, two days, read-out: cell growth inhibition
[20] = Homo sapiens, MDA-MB-231, 48 h, compound alone, final concentration 10^-9 mol/L, working solutions in MEM with 5% FBS, two days, read-out: cell growth inhibition
[21] = compound alone, final concentration 10^-7 mol/L, working solutions in MEM with 5% FBS, two days
[22] = compound alone, final concentration 10^-8 mol/L, working solutions in MEM with 5% FBS, two days
[23] = compound alone, final concentration 10^-9 mol/L, working solutions in MEM with 5% FBS, two days

O=C1c2c(O)ccc(O)c2C(=O)c2c(NCCNCCO)ccc(NCCNCCO)c21 [Mitoxantrone, mitoxantrone]
inhibition at 0.1 µM ([1]; Homo sapiens, DU-145, cytotoxic drug 10^-7 mol/L (100 nM), working solutions in medium with 5% FBS): 60.2% | inhibition at 0.01 µM ([1]; Homo sapiens, DU-145, cytotoxic drug 10^-8 mol/L, working solutions in medium with 5% FBS): 39.1% | inhibition at 0.001 µM ([1]; Homo sapiens, DU-145, cytotoxic drug 10^-9 mol/L, working solutions in medium with 5% FBS): 19.1% | IC50 ([1]; Homo sapiens, DU-145, as concentration of cytotoxic drug, medium with 5% FBS, calculated from three concentrations, read-out: IC50 mol/L (a)): 32 nM | Tumor Cell Number, × 10^3 ([1]; cytotoxic drug 10^-7 mol/L (100 nM), working solutions in medium with 5% FBS): 23.1 ± 1.34 × 10^3 | Cell Growth Inhibition, % ([1]; cytotoxic drug 10^-7 mol/L (100 nM), working solutions in medium with 5% FBS, 0.1 µM): 59.8* % | Tumor Cell Number, × 10^3 ([1]; cytotoxic drug 10^-7 mol/L (100 nM), working solutions in medium with 5% FBS, listed as mitoxantrone): 19.2 ± 1.16 × 10^3 | Cell Growth Inhibition, % [1, 4]: 39.1 * % | Tumor Cell Number, × 10^3 [1, 4]: 35.0 ± 1.70 × 10^3 | Tumor Cell Number, × 10^3 ([1]; cytotoxic drug 10^-9 mol/L, working solutions in medium with 5% FBS): 46.5 ± 2.32 × 10^3 | IC50 ([2]; Homo sapiens, MDA-MB-231, as concentration of cytotoxic drug, alone or in formulation at molar ratio 1:6, medium with 5% FBS, calculated from three concentrations, read-out: IC50 mol/L (a)): 5 nM | inhibition at 0.1 µM ([2]; Homo sapiens, MDA-MB-231, cytotoxic drug 10^-7 mol/L (100 nM), alone or in formulation at molar ratio 1:6, working solutions in medium with 5% FBS, read-out: Cell Growth Inhibition, %): 58.8% | inhibition at 0.01 µM ([2]; Homo sapiens, MDA-MB-231, cytotoxic drug 10^-8 mol/L, alone or in formulation at molar ratio 1:6, working solutions in medium with 5% FBS, read-out: Cell Growth Inhibition, %): 52.6% | inhibition at 0.001 µM ([2]; Homo sapiens, MDA-MB-231, cytotoxic drug 10^-9 mol/L, alone or in formulation at molar ratio 1:6, working solutions in medium with 5% FBS, read-out: Cell Growth Inhibition, %): 43.6% | Tumor Cell Number, × 10^3 ([2]; cytotoxic drug 10^-7 mol/L (100 nM), alone or in formulation at molar ratio 1:6, working solutions in medium with 5% FBS): 22.5 ± 1.63 × 10^3 | Cell Growth Inhibition, % ([2]; cytotoxic drug 10^-7 mol/L (100 nM), alone or in formulation at molar ratio 1:6, working solutions in medium with 5% FBS, 0.1 µM): 61.1* % | Tumor Cell Number, × 10^3 ([2]; cytotoxic drug 10^-7 mol/L (100 nM), alone or in formulation at molar ratio 1:6, working solutions in medium with 5% FBS, listed as mitoxantrone): 22.9 ± 1.49 × 10^3 | Tumor Cell Number, × 10^3 ([2]; cytotoxic drug 10^-8 mol/L, alone or in formulation at molar ratio 1:6, working solutions in medium with 5% FBS): 27.4 ± 1.90 × 10^3 | Tumor Cell Number, × 10^3 ([2]; cytotoxic drug 10^-9 mol/L, alone or in formulation at molar ratio 1:6, working solutions in medium with 5% FBS): 32.6 ± 1.99 × 10^3

CC1=C(/C=C/C(C)=C/C=C/C(C)=C/C(=O)N[C@@H](CS(=O)(=O)O)C(=O)O)C(C)(C)CCC1 [compound I-1, N-(all-trans-Retinoyl)-L-cysteic acid]
minimal lethal dose [3]: above 100 mg/kg body weight | inhibition at 0.1 µM [2, 5]: 41.5% | inhibition at 0.1 µM [2, 6]: 31.3% | inhibition at 0.1 µM [2, 7]: 14.8% | inhibition at 0.01 µM [2, 8]: 40.2% | inhibition at 0.01 µM [2, 9]: 29.7% | inhibition at 0.01 µM [2, 10]: 15% | inhibition at 0.001 µM [2, 11]: 36.9% | inhibition at 0.001 µM [2, 12]: 24.8% | inhibition at 0.001 µM [2, 13]: 16.1% | number of viable cells [2, 14]: 39.1 ± 1.41 × 10^3 | number of viable cells [2, 15]: 40.0 ± 1.35 × 10^3 | number of viable cells [2, 16]: 42.8 ± 1.56 × 10^3 | cell growth inhibition reached on increase of the concentration, in (B) [2, 17]: ~31%

COC(=O)[C@H](CS(=O)(=O)O)NC(=O)/C=C(C)/C=C/C=C(C)/C=C/C1=C(C)CCCC1(C)C [compound I-1a, N-(all-trans-retinoyl)-L-cysteic acid methyl ester]
minimal lethal dose [3]: above 100 mg/kg body weight | mortality [3]: did not produce mortality | inhibition at 0.1 µM [2, 18]: 47.9% | inhibition at 0.01 µM [2, 19]: 45.6% | inhibition at 0.001 µM [2, 20]: 40% | number of viable cells [2, 21]: 29.8 ± 2.44 × 10^3 | number of viable cells [2, 22]: 31.1 ± 1.90 × 10^3 | number of viable cells [2, 23]: 34.3 ± 2.27 × 10^3

CC1=C(/C=C/C(C)=C/C=C/C(C)=C/C(=O)N[C@@H](CS(=O)(=O)O)C(N)=O)C(C)(C)CCC1 [compound I-1f, N-(all-trans-retinoyl)-L-cysteic acid amide]
minimal lethal dose [3]: above 100 mg/kg body weight | mortality [3]: did not produce mortality | inhibition at 0.1 µM [2, 18]: 52.5% | inhibition at 0.01 µM [2, 19]: 48.6% | inhibition at 0.001 µM [2, 20]: 44.8% | inhibition at 0.1 µM [2, 5]: 53.3% | inhibition at 0.1 µM [2, 6]: 44.9% | inhibition at 0.1 µM [2, 7]: 15.2% | inhibition at 0.01 µM [2, 8]: 46.3% | inhibition at 0.01 µM [2, 9]: 36.1% | inhibition at 0.01 µM [2, 10]: 16.1% | inhibition at 0.001 µM [2, 11]: 38.6% | inhibition at 0.001 µM [2, 12]: 25.8% | inhibition at 0.001 µM [2, 13]: 17.1% | number of viable cells [2, 14]: 31.6 ± 0.89 × 10^3 | number of viable cells [2, 15]: 36.7 ± 0.75 × 10^3 | number of viable cells [2, 16]: 42.6 ± 0.80 × 10^3 | number of viable cells [2, 21]: 25.3 ± 1.11 × 10^3 | number of viable cells [2, 22]: 27.4 ± 1.42 × 10^3 | number of viable cells [2, 23]: 29.4 ± 2.15 × 10^3 | cell growth inhibition in (A) compared to compound in B [2, 17]: ~15% | cell growth inhibition reached on increase of the concentration, in (B) [2, 17]: ~45%

CC1=C(/C=C/C(C)=C/C=C/C(C)=C\C(=O)N[C@@H](CS(=O)(=O)O)C(=O)OC(C)C)C(C)(C)CCC1 [compound II-1c, N-(13-cis-retinoyl)-L-cysteic acid isopropyl ester]
inhibition at 0.1 µM [2, 18]: 50.4% | inhibition at 0.01 µM [2, 19]: 47% | inhibition at 0.001 µM [2, 20]: 42.6% | number of viable cells [2, 23]: 33.6 ± 2.75 × 10^3

CCCOC(=O)[C@H](CS(=O)(=O)O)NC(=O)\C=C(C)/C=C/C=C(C)/C=C/C1=C(C)CCCC1(C)C [compound II-1d, N-(13-cis-retinoyl)-L-cysteic acid propyl ester]
inhibition at 0.1 µM [2, 18]: 53.7% | inhibition at 0.01 µM [2, 19]: 50.4% | inhibition at 0.001 µM [2, 20]: 44.9% | number of viable cells [2, 21]: 26.3 ± 1.86 × 10^3 | number of viable cells [2, 22]: 28.2 ± 1.29 × 10^3 | number of viable cells [2, 23]: 31.3 ± 2.68 × 10^3

CCCCOC(=O)[C@H](CS(=O)(=O)O)NC(=O)\C=C(C)/C=C/C=C(C)/C=C/C1=C(C)CCCC1(C)C [compound II-1e, N-(13-cis-retinoyl)-L-cysteic acid butyl ester]
inhibition at 0.01 µM [2, 19]: 50.7% | inhibition at 0.001 µM [2, 20]: 45.6% | number of viable cells [2, 23]: 30.9 ± 1.82 × 10^3

CC1=C(/C=C/C(C)=C/C=C/C(C)=C\C(=O)N[C@@H](CCS(=O)(=O)O)C(=O)O)C(C)(C)CCC1 [compound II-3, N-(13-cis-Retinoyl)-L-homocysteic acid]
minimal lethal dose [3]: above 100 mg/kg body weight
